In PubChem BioAssay AID2060484 (Molecular Pharmacology Branch, DTP, NCI, 2025):
pIC50: −log10 of the molar value. Several values for one entry are separate records, joined by “and”; a condition that tells them apart may be missing. Equal entries are not always repeated.

Tested on: SUM149PT spheroids with HUVEC/MSC, viability
Experiment: Anticancer human tumor SUM149PT cell line growth inhibition [GQUAD];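 note: spheroids exposed to drugs for seven days before readout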;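 for viability, T/C: percent viability relative to DMSO vehicle control taken as 100%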
Conditions: for viability, T/C: stronger effect = lower value
Description: DNA G-quadruplex Stabilizer Agents in Combinations in Complex Spheroids
A high-throughput screen of multi-cell type tumor spheroids was designed to identify active combinations of DNA G-quadruplex stabilizer agents and targeted small molecules. Complex spheroids include a stromal component modeled by human endothelial cells (HUVEC) and fibroblasts modeled by human mesenchymal stem cells (MSCs). The concentration ranges selected for each drug and investigational agent were based upon clinically achievable concentrations if the clinical Cmax of the agent was known.
Compounds. The drugs and investigational agents: pidnarulex (CX-5461; NSC782164), APTO-253 (NSC789042), BRACO-19 (NSC847499), peposertib (NSC802822), ceralasertib (NSC780249), elimusertib (NSC800525), camonsertib (NSC841442), AZD-1390 (NSC803789), olaparib (NSC753686), talazoparib (NSC767125), ART-558 (NSC835418), sotorasib (NSC818433), MRTX-1133 (NSC836407), SN-38 (NSC673596), topotecan (NSC609699), etoposide (NSC141540), doxorubicin (NSC123127), gemcitabine (NSC613327), 5-fluorouracil (NSC19893), paclitaxel (NSC125973), vemurafenib (NSC761431), panobinostat (NSC761190), R-306465 (JNJ-16241199; NSC773264), adavosertib (NSC754352), TP-3654 (NSC805149), carboplatin (NSC241240), KSQ-4279 (NSC840948), and staurosporine (NSC755774) were obtained from the National Cancer Institute (NCI) Developmental Therapeutics Program Chemical Repository (34). The FDA-approved anticancer drug set is available from the NCI Developmental Therapeutics Program. […] The stock solutions were prepared in dimethyl sulfoxide (DMSO, Sigma-Aldrich, St. Louis, MO, cat. D2650) at 800-fold the tested concentration and stored at -70 degrees C prior to their use. All drugs and investigational agents were tested over a range starting from a high concentration at or near the clinical Cmax and decreasing in half-log increments. If the clinical Cmax for an agent had not been determined, the highest concentration tested was 10 microM.
2.3 Cell Culture. All cells were maintained in an incubator at 37 degrees C and 5% CO2 with 95% humidity. The PDC lines were cultured according to standard operating procedures established by the NCI PDMR. All PDCs were thawed and cultured in Matrigel-coated flasks prepared with a working solution of 1X Ham's F-12 nutrient mix, without supplementation (Invitrogen, cat. 11765054), 100 U/mL penicillin-streptomycin (Invitrogen, cat. 15140122), and 2.5% Matrigel (Corning Inc., cat. 354248) for the first three passages. The 857933-349-R-J2-PDC line was cultured in 6C/Colon 1B media, which includes advanced DMEM/F-12 (Thermo Fisher Scientific, cat. 12634028), 10 mM HEPES (Thermo Fisher Scientific, cat. 15630080), 1X GlutaMAX supplement (Thermo Fisher Scientific, cat. 35050061), 0.1 mg/mL primocin (InvivoGen, cat. ant-pm-2), 10% defined fetal bovine serum, heat inactivated (HyClone Laboratories Inc., cat. SH30070.03HI), 50% L-WRN conditioned media (ATCC, cat. CRL-3276), 1.25 mM N-Acetyl-L-cysteine (Sigma-Aldrich, cat. A9165), 10 mM nicotinamide (Sigma-Aldrich, cat. N0636), 1X B-27 supplement (Thermo Fisher Scientific, cat. 17504044), 1X N-2 supplement (Thermo Fisher Scientific, cat. 17502048), 10 microM Y-27632 dihydrochloride (Tocris Bioscience, cat. 1254), and 50 ng/mL human EGF recombinant protein (Thermo Fisher Scientific, cat. PHG0311). The 485176-168-R4-J1-PDC line was cultured in Panc media, which includes all 6C/Colon 1B media components plus 100 ng/mL human FGF-10 (Thermo Fisher Scientific, cat. 100-26), 500 nM SB-431542 (Selleckchem, cat. S1067), and gastrin (Tocris, cat. 3006).
[…]

[1] = compound alone, run of 03/18/2024

Row | Structure (SMILES) | viability, T/C (compound 0.0316 µM) | viability, T/C (compound 0.1 µM) | viability, T/C (compound 0.316 µM) | viability, T/C (compound 1 µM) | viability, T/C (compound 3.16 µM) | viability, T/C (compound 10 µM) | pIC50 (curve of compound) | pIC50 [1] | pIC50 (compound alone, run of 03/26/2024) | viability, T/C (compound 0.000999 µM) | viability, T/C (compound 0.00316 µM) | viability, T/C (compound 0.00999 µM) | viability, T/C (compound 0.0999 µM) | IC50 [1]
1 | COc1cc(C2c3cc4c(cc3C(OC3OC5COC(C)OC5C(O)C3O)C3COC(=O)C23)OCO4)cc(OC)c1O (centres undefined) | 99.6% and 98.6% and 97.5% | 88.2% and 81.7% (2×) | 55.6% and 52.5% and 61.4% | 49.3% and 48.9% and 58.8% | 36% and 29.3% and 42.2% | 18.6% and 14.3% and 22% | 6.08 and 6.19 and 5.87 | – | – | – | – | – | – | –
2 | COc1ccc([C@@H](O)c2cc(-c3ncnc4cc(N5CCOCC5)ccc34)c(F)cc2Cl)nn1 | 91.9% and 96.4% and 101% | 89.4% and 85.8% and 88.5% | 82.2% and 83.3% and 78.4% | 55.6% and 57.7% and 45% | 35% and 38.2% and 27.2% | 22.3% and 28.1% and 20.7% | 5.85 and 5.79 and 6.06 | – | – | – | – | – | – | –
3 | COc1cccc2c1C(=O)c1c(O)c3c(c(O)c1C2=O)CC(O)(C(=O)CO)CC3OC1CC(N)C(O)C(C)O1 (centres undefined) | 89.5% and 100% and 94% | 56.8% and 67.1% and 55.3% | 39.5% and 52.4% and 38.2% | 16.9% and 25.1% and 15.2% | 1.91% and 4.16% and 1.88% | 1.41% and 1.73% and 1.61% | 6.80 and 6.57 and 6.83 | – | – | – | – | – | – | –
4 | COc1ncnc(C2CC2)c1-c1ncc2cnn(Cc3ccc(-c4nc(C(F)(F)F)cn4C(C)C)cc3)c2n1 | 97.5% and 104% and 97.6% | 74.3% and 85.3% and 87.7% | 88.8% and 90.9% and 90.6% | 76% and 81.9% and 80.4% | 89.2% and 95.1% and 95.5% | 95.5% and 94.5% and 101% | < 5.00 | – | – | – | – | – | – | –
5 | Cc1[nH]c2ccc(F)cc2c1-c1nc2c3cccnc3c3ncccc3c2[nH]1 | – | 102% [middle of 12 runs] | 104% [middle of 12 runs] | 99% [middle of 12 runs] | – | 98.4% [middle of 12 runs] | – | < 5.00 | < 5.00 | – | – | – | – | –
6 | Cc1[nH]c2ccccc2c1CCNCc1ccc(/C=C/C(=O)NO)cc1 | 94.4% and 97.2% and 110% | – | 41.8% and 37.1% and 34.2% | – | – | – | 6.58 and 6.62 and 6.61 | – | – | 104% and 108% and 97.7% | 106% and 89.7% and 105% | 90.3% and 107% and 101% | 92.1% and 91.4% and 106% | –
7 | Cc1cccc(N(C)C(=O)C2C(O)CCN2c2nc(C)cc(C(F)(F)F)c2C#N)c1 (centres undefined) | 104% and 99.7% and 111% | 97.8% and 92.2% and 88.8% | 82.7% and 99.5% and 103% | 89% and 97.5% and 98.3% | 102% and 110% and 105% | 103% and 108% and 100% | < 5.00 | – | – | – | – | – | – | –
8 | Cc1cnc(CNC(=O)c2c(=O)c3ccc(N4CCCN(C)CC4)nc3n3c2sc2ccccc23)cn1 | 87.8% [middle of 12 runs] | 70% [middle of 12 runs] | 57.5% [middle of 12 runs] | 46.9% [middle of 12 runs] | 36.2% [middle of 12 runs] | – | – | – | – | – | – | – | – | 725 nM [middle of 12 runs]
9 | Cn1ncnc1[C@H]1c2n[nH]c(=O)c3cc(F)cc(c23)N[C@@H]1c1ccc(F)cc1 | 81.4% and 91.5% and 83.6% | – | 54.4% and 76.8% and 53.9% | – | – | – | < 6.50 | – | – | 98.5% and 103% and 109% | 97.1% and 96.5% and 102% | 97.5% and 93.8% and 91.6% | 68.1% (2×) and 91.5% | –
10 | Nc1ccn(C2OC(CO)C(O)C2(F)F)c(=O)n1 (centres undefined) | 74.9% and 85.4% and 74.1% | 37.6% and 48.4% and 42% | 24.5% and 38.1% and 20.7% | 23.8% and 31.2% and 18.5% | 16.5% (2×) and 24.5% | 15.4% and 24.8% and 17% | 7.16 and 6.97 and 7.12 | – | – | – | – | – | – | –
11 | O=C(NO)c1cnc(N2CCN(S(=O)(=O)c3ccc4ccccc4c3)CC2)nc1 | 97.1% and 108% and 102% | 86.9% and 95.1% and 86.5% | 48.5% (2×) and 56.6% | 0.52% and 2.34% and 1.78% | 0.32% and 0.27% and 0.08% | 0.29% and 0.71% | 6.53 and 6.45 and 6.54 | – | – | – | – | – | – | –
12 | O=C(c1cc(Cc2n[nH]c(=O)c3ccccc23)ccc1F)N1CCN(C(=O)C2CC2)CC1 | 92.5% and 110% and 104% | 97.8% and 93.5% and 82.5% | 92.7% and 102% and 99.8% | 108% and 96.9% and 101% | 106% and 108% and 97.4% | 70.6% and 86.7% and 69.7% | < 5.00 | – | – | – | – | – | – | –
13 | O=c1[nH]cc(F)c(=O)[nH]1 | 103% and 95.7% and 106% | 93.6% and 90.8% and 93.9% | 108% and 110% and 101% | 102% and 107% and 96% | 56.9% and 55.7% and 61.6% | 51.6% and 43.3% and 50.6% | < 5.00 and 5.27 | – | – | – | – | – | – | –
